PubChem BioAssay (NCI)
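Cells were grown in 96-well plates and exposed to each compound for 48 hours at five concentrations; endpoints were interpolated linearly between bracketing concentrations, or set to the highest concentration if not reached. GI50 = concentration required for 50% inhibition of growth. TGI: concentration producing complete growth inhibition.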

Columns and labels:
Assay in all cases: NCI-60 cell line screen, 48 h
M14 melanoma = test system: M14 melanoma
UACC-257 melanoma = test system: UACC-257 melanoma
UACC-62 melanoma = test system: UACC-62 melanoma
SNB-75 CNS = test system: SNB-75 CNS
OVCAR-3 ovarian = test system: OVCAR-3 ovarian
HCC-2998 colon = test system: HCC-2998 colon
A549 NSCLC = test system: A549 NSCLC
HOP-92 NSCLC = test system: HOP-92 NSCLC
NCI-H522 lung = test system: NCI-H522 lung
SK-MEL-5 melanoma = test system: SK-MEL-5 melanoma

`NC1=NN(c2ccccc2)C(=O)C1/C(=N\NC(=O)c1cc2ccccc2cc1O)C(=O)Nc1ccc(Cl)cc1` (stereo unspecified) gave a TGI (M14 melanoma) of 74.7 µM, a TGI (UACC-257 melanoma) of 80.4 µM and a TGI (UACC-62 melanoma) of 66.2 µM. It also gave a TGI (SNB-75 CNS) of 54.8 µM, a TGI (OVCAR-3 ovarian) greater than 100 µM and a TGI (HCC-2998 colon) greater than 100 µM. It also gave a TGI (A549 NSCLC) greater than 100 µM, a TGI (HOP-92 NSCLC) of 71.3 µM and a TGI (NCI-H522 lung) of 83.4 µM. It also gave a TGI (SK-MEL-5 melanoma) of 56.5 µM.
In the case of `COC(=O)C(NC(=O)c1ccccc1)c1ccc(OC)c(I)c1` (stereo unspecified), the GI50 (M14 melanoma) is reported as 52.3 µM, the TGI (M14 melanoma) is reported as greater than 100 µM and the GI50 (UACC-257 melanoma) is reported as 48.3 µM. It also gave a TGI (UACC-257 melanoma) greater than 100 µM, a GI50 (UACC-62 melanoma) of 52.9 µM and a TGI (UACC-62 melanoma) greater than 100 µM. The GI50 (SNB-75 CNS) was 56.7 µM, the TGI (SNB-75 CNS) was greater than 100 µM and the GI50 (OVCAR-3 ovarian) was 37.4 µM. It also gave a TGI (OVCAR-3 ovarian) of 88.2 µM, a GI50 (HCC-2998 colon) of 54.5 µM and a TGI (HCC-2998 colon) greater than 100 µM. It also gave a GI50 (A549 NSCLC) of 62.1 µM, a TGI (A549 NSCLC) greater than 100 µM and a GI50 (HOP-92 NSCLC) of 58.6 µM. For the same molecule, the TGI (HOP-92 NSCLC) was greater than 100 µM, the GI50 (NCI-H522 lung) was 43.6 µM and the TGI (NCI-H522 lung) was greater than 100 µM. The GI50 (SK-MEL-5 melanoma) was 44.2 µM and the TGI (SK-MEL-5 melanoma) was greater than 100 µM.
`O=C(NCc1cccnc1)c1ccc([N+](=O)[O-])o1` gave a GI50 (M14 melanoma) of 1.42 µM, a TGI (M14 melanoma) of 5.12 µM and a GI50 (UACC-257 melanoma) of 1.13 µM. The TGI (UACC-257 melanoma) was 5.03 µM, the GI50 (UACC-62 melanoma) was 1.06 µM and the TGI (UACC-62 melanoma) was 4.42 µM. For the same molecule, the GI50 (SNB-75 CNS) was 1.18 µM, the TGI (SNB-75 CNS) was 7.24 µM and the GI50 (OVCAR-3 ovarian) was 1.61 µM. For the same molecule, the TGI (OVCAR-3 ovarian) was 6.89 µM, the GI50 (HCC-2998 colon) was 1.83 µM and the TGI (HCC-2998 colon) was 6.05 µM. For the same molecule, the GI50 (A549 NSCLC) was 2.54 µM, the TGI (A549 NSCLC) was 7.28 µM and the GI50 (HOP-92 NSCLC) was greater than 17.2 µM. It also gave a TGI (HOP-92 NSCLC) of 32.2 µM, a GI50 (NCI-H522 lung) of 0.141 µM and a TGI (NCI-H522 lung) of 0.602 µM. For the same molecule, the GI50 (SK-MEL-5 melanoma) was 2.18 µM and the TGI (SK-MEL-5 melanoma) was 6.38 µM.
Molecule `c1csc(-c2[nH]nc3c2CCc2ccccc2-3)c1` has a GI50 (M14 melanoma) of 17.8 µM, a TGI (M14 melanoma) of 38 µM and a GI50 (UACC-257 melanoma) of 19.8 µM. For the same molecule, the TGI (UACC-257 melanoma) was 49.1 µM, the GI50 (UACC-62 melanoma) was 13.6 µM and the TGI (UACC-62 melanoma) was 27.8 µM. The GI50 (SNB-75 CNS) was 4.25 µM, the TGI (SNB-75 CNS) was 35 µM and the GI50 (OVCAR-3 ovarian) was 3.35 µM. The TGI (OVCAR-3 ovarian) was 19.7 µM, the GI50 (HCC-2998 colon) was 1.15 µM and the TGI (HCC-2998 colon) was 28.6 µM. The GI50 (A549 NSCLC) was 13 µM, the TGI (A549 NSCLC) was 55.4 µM and the GI50 (HOP-92 NSCLC) was 1.88 µM. It also gave a TGI (HOP-92 NSCLC) of 20.4 µM, a GI50 (NCI-H522 lung) of 18.9 µM and a TGI (NCI-H522 lung) of 44.9 µM. The GI50 (SK-MEL-5 melanoma) was 13 µM and the TGI (SK-MEL-5 melanoma) was 26 µM.
`O=C(COC(=O)[C@H](C[Se][Se]C[C@H](NC(=O)c1ccc(Br)cc1F)C(=O)OCC(=O)c1ccc(F)cc1)NC(=O)c1ccc(Br)cc1F)c1ccc(F)cc1` gave a GI50 (M14 melanoma) of 1.08 µM, a TGI (M14 melanoma) of 2.9 µM and a GI50 (UACC-257 melanoma) of 1.82 µM. The TGI (UACC-257 melanoma) was 4.39 µM, the GI50 (UACC-62 melanoma) was 1.69 µM and the TGI (UACC-62 melanoma) was 4.83 µM. It also gave a GI50 (SNB-75 CNS) of 0.354 µM, a TGI (SNB-75 CNS) of 0.964 µM and a GI50 (OVCAR-3 ovarian) of 0.479 µM. The TGI (OVCAR-3 ovarian) was 1.27 µM, the GI50 (HCC-2998 colon) was 1.39 µM and the TGI (HCC-2998 colon) was 3.56 µM. The GI50 (A549 NSCLC) was 1.03 µM, the TGI (A549 NSCLC) was 4.45 µM and the GI50 (HOP-92 NSCLC) was 2.73 µM. The TGI (HOP-92 NSCLC) was 6.66 µM, the GI50 (NCI-H522 lung) was 2.2 µM and the TGI (NCI-H522 lung) was 4.38 µM. It also gave a GI50 (SK-MEL-5 melanoma) of 1.23 µM and a TGI (SK-MEL-5 melanoma) of 4.27 µM.
For `O=[N+]([O-])c1cccc(C2=NOC3CCCC23)c1` (stereo unspecified), the TGI (M14 melanoma) was greater than 100 µM, the TGI (UACC-257 melanoma) was greater than 100 µM and the TGI (UACC-62 melanoma) was greater than 100 µM. The TGI (SNB-75 CNS) was greater than 100 µM, the TGI (OVCAR-3 ovarian) was greater than 100 µM and the TGI (HCC-2998 colon) was greater than 100 µM. It also gave a TGI (A549 NSCLC) greater than 100 µM, a TGI (HOP-92 NSCLC) greater than 100 µM and a TGI (NCI-H522 lung) greater than 100 µM. It also gave a TGI (SK-MEL-5 melanoma) greater than 100 µM.
`Cc1cc2c(SCc3ccccc3Cl)nc(N)nc2nc1C` showed a TGI (M14 melanoma) greater than 100 µM, a TGI (UACC-257 melanoma) greater than 100 µM and a TGI (UACC-62 melanoma) greater than 100 µM. It also gave a TGI (SNB-75 CNS) greater than 100 µM, a TGI (OVCAR-3 ovarian) greater than 100 µM and a TGI (HCC-2998 colon) greater than 100 µM. It also gave a TGI (A549 NSCLC) greater than 100 µM, a TGI (HOP-92 NSCLC) greater than 100 µM and a TGI (NCI-H522 lung) greater than 100 µM. For the same molecule, the TGI (SK-MEL-5 melanoma) was greater than 100 µM.
Work on `Cn1c(=O)c(-c2c(Cl)cccc2Cl)cc2cnc(Nc3ccc(N4CCOCC4)cc3)nc21` yielded a GI50 (M14 melanoma) of less than 0.01 µM, a TGI (UACC-257 melanoma) greater than 22.4 µM and a GI50 (UACC-62 melanoma) of less than 0.0131 µM. For the same molecule, the GI50 (SNB-75 CNS) was less than 0.01 µM, the TGI (SNB-75 CNS) was 0.0916 µM and the GI50 (OVCAR-3 ovarian) was 0.323 µM. The TGI (OVCAR-3 ovarian) was greater than 100 µM, the GI50 (HCC-2998 colon) was 0.0431 µM and the TGI (HCC-2998 colon) was 0.209 µM. It also gave a GI50 (A549 NSCLC) of 0.666 µM, a GI50 (HOP-92 NSCLC) of 0.211 µM and a TGI (HOP-92 NSCLC) of 1.93 µM. For the same molecule, the GI50 (NCI-H522 lung) was 0.0202 µM, the TGI (NCI-H522 lung) was 0.42 µM and the GI50 (SK-MEL-5 melanoma) was 0.149 µM. For the same molecule, the TGI (SK-MEL-5 melanoma) was 1.34 µM.
In the case of `COC(=O)N/N=C(\c1nc2ccc(Cl)cc2[nH]c1=O)C(O)c1ccc([N+](=O)[O-])cc1` (stereo unspecified), the TGI (M14 melanoma) is reported as greater than 100 µM, the TGI (UACC-257 melanoma) is reported as greater than 100 µM and the TGI (UACC-62 melanoma) is reported as greater than 100 µM. It also gave a TGI (SNB-75 CNS) greater than 100 µM, a TGI (OVCAR-3 ovarian) greater than 100 µM and a TGI (HCC-2998 colon) greater than 100 µM. The TGI (A549 NSCLC) was greater than 100 µM, the TGI (HOP-92 NSCLC) was greater than 100 µM and the TGI (NCI-H522 lung) was greater than 100 µM. The TGI (SK-MEL-5 melanoma) was greater than 100 µM.
